Laboratory results from US20150189876A1, “CROP ENHANCEMENT COMPOSITIONS” (Syngenta Participations AG, priority 2012, published 2015).
Where two headings read alike, the source gives them in different places.

Experiments:
Heliothis virescens = experiment: Egg and larval mortality on artificial diet, 24-well plate, 4 days; assay type: in vivo
Protocol: 2.1 Heliothis virescens (Tobacco Budworm)
Eggs (0-24 h old) were placed in a 24-well microtiter plate on artificial diet and treated with test solutions by pipetting. After an incubation period of 4 days, samples were checked for egg mortality and larval mortality.

Myzus persicae = experiment: Leaf disc spray test, 24-well plate, mortality after 6 days (Table 2.3); assay type: in vivo
Protocol: 2.2 Myzus persicae (Green Peach Aphid)
Sunflower leaf discs were placed on agar in a 24-well microtiter plate and sprayed with test solutions. After drying, the leaf discs were infested with an aphid population of mixed ages. After an incubation period of 6 days, samples were checked for mortality.

Tetranychus urticae = experiment: Leaf disc spray test, 24-well plate, mortality after 6 days (Table 2.2); assay type: in vivo
Protocol: 2.3 Tetranychus urticae (Two-Spotted Spider Mite)
Bean leaf discs were placed on agar in 24-well microtiter plates sprayed with test solutions. After drying, the leaf discs were infested with a mite population of mixed ages. After an incubation period of 6 days, samples were checked for larval mortality, and adult mortality.

Fusarium culmorum = experiment: In vitro antifungal checkerboard test, fungal growth by OD450 in 96-well microtiter plates; assay type: cell-based
Protocol: (§1) In vitro antifungal activity of fungicides in combination with a compound of formula (II) was evaluated in 96 well-microtiter plate system using the checkerboard method (Vitale, R. G, Afeltra, J., and Dannaoui, E. 2005: Methods in Molecular Medicine, Vol. 118, Antifungal Agents: Methods and Protocols p. 143-152). Active ingredients were two-fold serially diluted in DMSO and mixed with double strength Potato Dextrose Broth or Alkyl Ester agar (AE medium, Miguez, M., Reeve, C., Wood, P. M. and Hollomon, D. W. (2004), Alternative oxidase reduces the sensitivity of Mycosphaerella graminicola to QOI fungicides. Pest. Manag. Sci., 60: 3-7) before filled into wells according to the checkerboard format. Each dilution well containing was inoculated with fungal spore suspension to receive a final concentration of 1×10^4 spores/ml per well. Wells of last column containing only medium and spore suspension were included as control. Three replicated microtiter plates were used in each test system. Fungal growth in each well of the micro-plates was assessed spectrophotometrically at OD450 nm (16-scan point spectrophotometer, Tecan) after inoculation [OD(0 h)=background value] and after an incubation period of 72 h [OD(72 h)] at 25° C. in the dark. Fungal growth was described as increase in OD450 nm during the time interval from 0 h to 72 h [OD(72 h)-OD(0 h)]. Fungal growth in each well of the micro-plates was assessed spectrophotometrically at OD450 nm (16-scan point spectrophotometer, Tecan) after inoculation and after an incubation period of 3-6 days at 25° C. in the dark. Fungal growth was described as increase in OD450 nm during incubation period.

[1] = test system: Fusarium culmorum; Aspergillus parasiticus; Pyrenophora teres; experiment: In vitro antifungal checkerboard test, overall statement on Tables 1.1 to 1.5; assay type: cell-based
Protocol: as §1

Aspergillus parasiticus = experiment: In vitro antifungal checkerboard test, fungal growth by OD450 in 96-well microtiter plates; assay type: cell-based; conditions: for Azoxystrobin Inhibition (%): Azoxystrobin alone
Protocol: as §1

Pyrenophora teres = experiment: as above; assay type: cell-based; conditions: for Sedaxane Inhibition (%): Sedaxane alone
Protocol: as §1

[2] = Thiabendazole alone, read-out: Thiabendazole Inhibition (%)
[3] = Formula (II) 0.000003 ppm alone
[4] = Compound II alone, read-out: Compound II Inhibition (%)
[5] = Tebuconazole alone, read-out: Tebuconazole Inhibition (%)
[6] = Prothioconazole alone, read-out: Prothioconazole Inhibition (%)

With CN/C(=N\[N+](=O)[O-])NCc1cnc(Cl)s1 [Clothianidin, clothianidin, reference compound] the “% control (average of 2 reps)” value (Heliothis virescens; Clothianidin 50 ppm alone) was 100% and the “% control (average of 2 reps)” value (Myzus persicae; Clothianidin 3 ppm alone) was 100%.

CNC(=O)c1cc(C#N)cc(C)c1NC(=O)c1cc(Br)nn1-c1ncccc1Cl [Cyantraniliprole, cyantraniliprole, reference compound] was tested, and the “% control (average of 2 reps)” value (Heliothis virescens; Cyantraniliprole 0.8 ppm alone) was 100% and the “% control (average of 2 reps)” value (Tetranychus urticae; Cyantraniliprole 100 ppm alone) was 95%.

CNC(=O)c1cc(Cl)cc(C)c1NC(=O)c1cc(Br)nn1-c1ncccc1Cl [Chlorantraniliprole, chlorantraniliprole, reference compound] was tested, and the “% control (average of 2 reps)” value (Heliothis virescens; Chlorantraniliprole 0.4 ppm alone) was 90% and the “% control (average of 2 reps)” value (Tetranychus urticae; Chlorantraniliprole 400 ppm alone) was 95%.

Cc1c(F)c(F)c(COC(=O)[C@@H]2[C@H](/C=C(\Cl)C(F)(F)F)C2(C)C)c(F)c1F (racemic) [Tefluthrin, tefluthrin, reference compound] was tested, and the “% control (average of 2 reps)” value (Heliothis virescens; Tefluthrin 100 ppm alone) was 95% and the “% control (average of 2 reps)” value (Tetranychus urticae; Tefluthrin 100 ppm alone) was 90%.

With c1ccc2[nH]c(-c3cscn3)nc2c1 [Thiabendazole, thiabendazole, reference compound] the inhibition at 64 ppm (Fusarium culmorum; [2]) was 98.3% and the inhibition at 128 ppm (Fusarium culmorum; [2]) was 99.4%.

CC1=C[C@H](O/C=C2/C(=O)NC3c4ccccc4CC23)OC1=O (some centres unmarked) [Compound II] was tested, and the “% control (average of 2 reps)” value (Heliothis virescens; [3]) was 0%, the “% control (average of 2 reps)” value (Heliothis virescens; Formula (II) 0.0003 ppm alone) was 0% and the “% control (average of 2 reps)” value (Heliothis virescens; Formula (II) 0.03 ppm alone) was 0%. For the same compound, the “% control (average of 2 reps)” value (Heliothis virescens; Formula (II) 1 ppm alone) was 0%, the “antagonism of the activity of the insecticides” value (“antagonism … of the insecticides” below) (Heliothis virescens; mixtures of Table 2.1) was “did not antagonise the activity of any of the insecticides” and the “% control (average of 2 reps)” value (Tetranychus urticae; [3]) was 0%. The “% control (average of 2 reps)” value (Tetranychus urticae; Formula (II) 0.0003 ppm alone) was 0%, the “% control (average of 2 reps)” value (Tetranychus urticae; Formula (II) 0.03 ppm alone) was 0% and the “% control (average of 2 reps)” value (Tetranychus urticae; Formula (II) 1 ppm alone) was 0%. The “antagonism … of the insecticides” value (Tetranychus urticae; mixtures of Table 2.2) was “did not antagonise the activity of any of the insecticides”, the “synergistic effect on the activity of fungicides” value ([1]; at some rates) was “provides a synergistic effect on the activity of fungicides at some rates” and the “fungicidal activity of the compound of formula (II) alone” value ([1]; in general, Tables 1.1 to 1.5) was “did not cause any, or only very low levels of fungicidal activity”. The “antagonism of the activity of the fungicides tested” value ([1]; in general, mixtures of Tables 1.1 to 1.5) was “did not antagonise the activity of any of the fungicides tested”, the inhibition at 0.125 ppm (Aspergillus parasiticus; Aspergillus parasiticus, Compound II alone, 0.125 ppm) was 8.7% and the inhibition at 0.25 ppm (Aspergillus parasiticus; Aspergillus parasiticus, Compound II alone, 0.25 ppm) was 11.3%. For the same compound, the inhibition at 0.5 ppm (Aspergillus parasiticus; Aspergillus parasiticus, Compound II alone, 0.5 ppm) was 9.3%, the inhibition at 1 ppm (Aspergillus parasiticus; Aspergillus parasiticus, Compound II alone, 1 ppm) was 9.6% and the inhibition at 2 ppm (Aspergillus parasiticus; Aspergillus parasiticus, Compound II alone, 2 ppm) was 0.5%. The inhibition at 4 ppm (Aspergillus parasiticus; Aspergillus parasiticus, Compound II alone, 4 ppm) was 5.4%, the inhibition at 8 ppm (Aspergillus parasiticus; Aspergillus parasiticus, Compound II alone, 8 ppm) was 20.5% and the inhibition at 16 ppm (Aspergillus parasiticus; Aspergillus parasiticus, Compound II alone, 16 ppm) was 22.1%. For the same compound, the inhibition at 32 ppm (Aspergillus parasiticus; Aspergillus parasiticus, Compound II alone, 32 ppm) was 2%, the inhibition at 64 ppm (Aspergillus parasiticus; Aspergillus parasiticus, Compound II alone, 64 ppm) was 11.3% and the inhibition at 0.25 ppm (Pyrenophora teres; Pyrenophora teres, Compound II alone, 0.25 ppm) was 0%. It also gave an inhibition at 0.5 ppm (Pyrenophora teres; Pyrenophora teres, Compound II alone, 0.5 ppm) of 0%, an inhibition at 1 ppm (Pyrenophora teres; Pyrenophora teres, Compound II alone, 1 ppm) of 0% and an inhibition at 2 ppm (Pyrenophora teres; Pyrenophora teres, Compound II alone, 2 ppm) of 0%. For the same compound, the inhibition at 4 ppm (Pyrenophora teres; Pyrenophora teres, Compound II alone, 4 ppm) was 0%, the inhibition at 8 ppm (Pyrenophora teres; Pyrenophora teres, Compound II alone, 8 ppm) was 0% and the inhibition at 16 ppm (Pyrenophora teres; Pyrenophora teres, Compound II alone, 16 ppm) was 0%. For the same compound, the inhibition at 32 ppm (Pyrenophora teres; Pyrenophora teres, Compound II alone, 32 ppm) was 0%, the inhibition at 64 ppm (Pyrenophora teres; Pyrenophora teres, Compound II alone, 64 ppm) was 0% and the inhibition at 128 ppm (Pyrenophora teres; Pyrenophora teres, Compound II alone, 128 ppm) was 3.9%. For the same compound, the inhibition at 0.0625 ppm (Fusarium culmorum; Compound II alone, 0.0625 ppm) was 1.8%, the inhibition at 0.125 ppm (Fusarium culmorum; Compound II alone, 0.125 ppm) was 6.5% and the inhibition at 0.25 ppm (Fusarium culmorum; Compound II alone, 0.25 ppm) was 3.2%. It also gave an inhibition at 0.5 ppm (Fusarium culmorum; Compound II alone, 0.5 ppm) of 1.2%, an inhibition at 1 ppm (Fusarium culmorum; Compound II alone, 1 ppm) of 0% and an inhibition at 2 ppm (Fusarium culmorum; Compound II alone, 2 ppm) of 2.5%. For the same compound, the inhibition at 4 ppm (Fusarium culmorum; [4]) was 1.3%, the inhibition at 8 ppm (Fusarium culmorum; [4]) was 0% and the inhibition at 16 ppm (Fusarium culmorum; Compound II alone, 16 ppm) was 0%. The inhibition at 32 ppm (Fusarium culmorum; Compound II alone, 32 ppm) was 0%, the “% control (average of 2 reps)” value (Myzus persicae; [3]) was 0% and the “% control (average of 2 reps)” value (Myzus persicae; Formula (II) 0.0003 ppm alone) was 0%. The “% control (average of 2 reps)” value (Myzus persicae; Formula (II) 0.03 ppm alone) was 0%, the “% control (average of 2 reps)” value (Myzus persicae; Formula (II) 1 ppm alone) was 0% and the “antagonism … of the insecticides” value (Myzus persicae; mixtures of Table 2.3) was “did not antagonise the activity of any of the insecticides”.

In the case of abamectin [reference compound], the “% control (average of 2 reps)” value (Heliothis virescens; Abamectin 3 ppm alone) is reported as 95% and the “% control (average of 2 reps)” value (Tetranychus urticae; Abamectin 0.2 ppm alone) is reported as 100%.

With CC(C)(C)C(O)(CCc1ccc(Cl)cc1)Cn1cncn1 (centres unmarked) [Tebuconazole, tebuconazole, reference compound] the inhibition at 4 ppm (Fusarium culmorum; [5]) was 97.1% and the inhibition at 8 ppm (Fusarium culmorum; [5]) was 90.1%.

Cn1cc(C(=O)Nc2ccccc2C2CC2C2CC2)c(C(F)F)n1 (centres unmarked) [Sedaxane, sedaxane, reference compound] was tested, and the “Sedaxane Inhibition (%)” value (Pyrenophora teres; 4 ppm) was 62.5%, the “Sedaxane Inhibition (%)” value (Pyrenophora teres; 8 ppm) was 81.2% and the “Sedaxane Inhibition (%)” value (Pyrenophora teres; 16 ppm) was 82.1%. For the same compound, the “Sedaxane Inhibition (%)” value (Pyrenophora teres; 32 ppm) was 85.9% and the “Sedaxane Inhibition (%)” value (Pyrenophora teres; 64 ppm) was 88.1%.

In the case of CC(c1ccc(C(F)(F)F)nc1)S(C)(=O)=NC#N (centres unmarked) [Sulfoxaflor, sulfoxaflor, reference compound], the “% control (average of 2 reps)” value (Myzus persicae; Sulfoxaflor 0.8 ppm alone) is reported as 100%.

CO/C=C(/C(=O)OC)c1ccccc1Oc1cc(Oc2ccccc2C#N)ncn1 [Azoxystrobin, azoxystrobin, reference compound] was tested, and the “Azoxystrobin Inhibition (%)” value (Aspergillus parasiticus; 8 ppm) was 82.8%, the “Azoxystrobin Inhibition (%)” value (Aspergillus parasiticus; 16 ppm) was 84.5% and the “Azoxystrobin Inhibition (%)” value (Aspergillus parasiticus; 32 ppm) was 78.5%. The “Azoxystrobin Inhibition (%)” value (Aspergillus parasiticus; 64 ppm) was 60.8%.

With O=[N+]([O-])NC1=NCCN1Cc1ccc(Cl)nc1 [Imidacloprid, imidacloprid, reference compound] the “% control (average of 2 reps)” value (Heliothis virescens; Imidacloprid 200 ppm alone) was 100% and the “% control (average of 2 reps)” value (Myzus persicae; Imidacloprid 1.6 ppm alone) was 100%.

For CN1COCN(Cc2cnc(Cl)s2)/C1=N\[N+](=O)[O-] [Thiamethoxam, thiamethoxam, reference compound], the “% control (average of 2 reps)” value (Myzus persicae; Thiamethoxam 3 ppm alone) was 100%.

Compound OC(Cc1ccccc1Cl)(Cn1nc[nH]c1=S)C1(Cl)CC1 (centres unmarked) [Prothioconazole, prothioconazole, reference compound] has an inhibition at 64 ppm (Fusarium culmorum; [6]) of 97.3% and an inhibition at 128 ppm (Fusarium culmorum; [6]) of 95%.
